Test [1] has as its system HUVEC cells. In words: EF-induced reorientation of endothelial cells (orientation index Oi). The format is cell-based, human.
Experimental: HUVEC cells were seeded in a trough formed by two parallel (1 cm apart) strips of glass coverslip (No. 1, length of 22 mm) fixed to the base of the dish with silicone grease. Scratch lines were made perpendicular to the long axis of the chamber with a fine sterile needle and used as reference marks for directed cell migration. Cells were incubated for 24-48 hours (37° C., 5% CO2) before a roof coverslip was applied and sealed with silicone grease. The final dimensions of the chamber, through which current was passed, were 22×10×0.2 mm. Agar-salt bridges not less than 15 cm long were used to connect silver/silver-chloride electrodes in beakers of Steinberg's solution (58 mM NaCl, 0.67 mM KCl, 0.44 mM Ca(NO3)2, 1.3 mM MgSO4, 4.6 mM Trizma base, pH 7.8-8.0), to pools of excess culture medium at either side of the chamber. Field strengths were measured directly at the beginning of, the end of and during each experiment. […] (50 μM), the Rho kinase inhibitor Y27632 (50 μM), both Akt and Rho kinase inhibitors (10 μM each) or latrunculin (50 nM) for 1 hour before EF stimulation. The same concentration of drug was present during EF exposure in a CO2 incubator.
A series of images was taken with an image analyser immediately before EF exposure and at 4, 8 and 24 hours of EF exposure. Cell orientation was quantified as an orientation index (Oi), which is defined as Oi=cos2(α), where α is the angle formed by the long axis of a cell with a line drawn perpendicular to the field lines. A cell with its long axis parallel to the vector of the EF will have an Oi of −1, and a cell with its long axis exactly perpendicular to the EF vector will have an Oi of +1. […] The significance of this two-dimensional orientation distribution against randomness was calculated using Rayleigh's distribution. A long:short axis ratio was calculated for assessment of elongation.
The test system of the next test is Human keratinocytes. Briefly: in vitro scratch assay (cell migration). In kind it is cell-based. The source says: The in vitro scratch assay is an easy, low-cost and well-developed method to measure cell migration in vitro. The basic steps involve creating a “scratch” in a cell monolayer, capturing images at the beginning and at regular intervals during cell migration to close the scratch, and comparing the images to quantify the migration rate of the cells. Compared to other methods, the in vitro scratch assay is particularly suitable for studies on the effects of cell-matrix and cell-cell interactions on cell migration, mimic cell migration during wound healing in vivo and are compatible with imaging of live cells during migration to monitor intracellular events if desired. In addition to monitoring migration of homogenous cell populations, this method has also been adopted to measure migration of individual cells in the leading edge of the scratch.
Human keratinocytes were plated under plated under placebo or a LLEC system described herein (labeled “PROCELLERA®”). Cells were also plated under silver-only or zinc-only dressings. After 24 hours, the scratch assay was performed.
Cell culture—Immortalized HaCaT human keratinocytes were grown in Dulbecco's low-glucose modified Eagle's medium (Life Technologies, Gaithersburg, Md., U.S.A.) supplemented with 10% fetal bovine serum, 100 U/ml penicillin, and 100 μg/ml streptomycin. The cells were maintained in a standard culture incubator with humidified air containing 5% CO2 at 37° C.
Scratch assay—A cell migration assay was performed using culture inserts (IBIDI®, Verona, Wis.) according to the manufacturer's instructions. Cell migration was measured using time-lapse phase-contrast microscopy following withdrawal of the insert. Images were analyzed using the AxioVision Rel 4.8 software.
N-Acetyl Cysteine Treatment—Cells were pretreated with 5 mM of the thiol antioxidant N-acetylcysteine (Sigma) for 1 h before start of the scratch assay.
IGF-1 R inhibition—When applicable, cells were preincubated with 50 nM IGF-1 R inhibitor, picropodophyllin (Calbiochem, Mass.) just prior to the Scratch Assay. […]

For test [2], the system named is HUVEC cells. Briefly: EF-induced elongation of endothelial cells (long:short axis ratio). In kind it is cell-based, human. As to conditions: for long:short axis ratio in EF-treated cells: inhibitor 50 μM, vs control. The protocol: Tissue culture reagents were obtained from Life Technologies UK. […] Rhodamine-phalloidin (E3478) was obtained from Molecular Probes (Leiden, The Netherlands) and anti-tubulin conjugated with FITC was obtained from Sigma. The HUVEC cell line from ATCC was used prior to passage 10. Dulbecco's modified Eagle's medium (DMEM) with 10% fetal bovine serum (FBS) was used for culture cells and EF exposure experiments.
HUVEC cells were seeded in a trough formed by two parallel (1 cm apart) strips of glass coverslip (No. 1, length of 22 mm) fixed to the base of the dish with silicone grease. Scratch lines were made perpendicular to the long axis of the chamber with a fine sterile needle and used as reference marks for directed cell migration. Cells were incubated for 24-48 hours (37° C., 5% CO2) before a roof coverslip was applied and sealed with silicone grease. The final dimensions of the chamber, through which current was passed, were 22×10×0.2 mm. Agar-salt bridges not less than 15 cm long were used to connect silver/silver-chloride electrodes in beakers of Steinberg's solution (58 mM NaCl, 0.67 mM KCl, 0.44 mM Ca(NO3)2, 1.3 mM MgSO4, 4.6 mM Trizma base, pH 7.8-8.0), to pools of excess culture medium at either side of the chamber. Field strengths were measured directly at the beginning of, the end of and during each experiment. No fluctuations in field strength were observed. […] (50 μM), the Rho kinase inhibitor Y27632 (50 μM), both Akt and Rho kinase inhibitors (10 μM each) or latrunculin (50 nM) for 1 hour before EF stimulation. […]
A series of images was taken with an image analyser immediately before EF exposure and at 4, 8 and 24 hours of EF exposure. Cell orientation was quantified as an orientation index (Oi), which is defined as Oi=cos2(α), where α is the angle formed by the long axis of a cell with a line drawn perpendicular to the field lines. […] The significance of this two-dimensional orientation distribution against randomness was calculated using Rayleigh's distribution. A long:short axis ratio was calculated for assessment of elongation.

The mark [3] stands for this setting: inhibitor 50 μM, 1 hour before and during EF.

Take `COc1cc2ncnc(Nc3ccc(Cl)cc3F)c2cc1OC` [VEGFR inhibitor, 4-[(4′-chloro-2′-fluoro)phenylamino]-6,7-dimethoxyquinazoline]: the “orientation response of cells in an EF” value in the test on HUVEC cells [1] (setting [3]) was “completely abolished the reorientation of cells in an EF”.
Consider catalase, for which the “increased migration triggered by the LLEC, with over-expression of catalase” value with Human keratinocytes (HaCaT transfected with AdCatalase, 72 h) is “attenuated the increased migration”.
With `CC(=O)N[C@@H](CS)C(=O)O` [N-Acetyl Cysteine, N-acetylcysteine], in the test on Human keratinocytes (5 mM, 1 h pretreatment before scratch assay), the “increased keratinocyte migration observed with LLEC, in presence of N-acetyl cysteine” value is “failed to reproduce the increased migration”.
Consider “1-L-6-hydroxymethyl-chiro-inositol 2-[(R)-2-O-methyl-3-O-octadecylcarbonate] [Akt inhibitor]”, for which the “long:short axis ratio in EF-treated cells” value with HUVEC cells [2] is given as “significantly decreased the long:short axis ratio”. Also, the “orientation response of cells in an EF” value in the test on HUVEC cells [1] (setting [3]) is reported as “significantly decreased the orientation response”.
`C[C@@H](N)[C@H]1CC[C@H](C(=O)Nc2ccncc2)CC1` [Y27632]: the “long:short axis ratio in EF-treated cells” value in the test with HUVEC cells [2] is listed as “significantly decreased the long:short axis ratio”.
On to `C/C1=C/C(=O)O[C@@H]2C[C@@H](CC[C@H](C)/C=C\C=C\CC1)O[C@@](O)([C@@H]1CSC(=O)N1)C2` [Latrunculin A], for which, in the test with HUVEC cells [2] (latrunculin 50 nM), the EF-induced elongation response entry is “completely abolished the EF-induced elongation response”. Besides, the “orientation response of cells in an EF” value with HUVEC cells [1] (latrunculin 50 nM, P<0.001) is given as “suppressed the orientation response significantly”.
On to `COc1cc([C@@H]2c3cc4c(cc3[C@H](O)[C@H]3COC(=O)[C@@H]23)OCO4)cc(OC)c1OC` [IGF-1 R inhibitor, picropodophyllin], for which the “increased keratinocyte migration observed with LLEC, in presence of IGF-1 R inhibitor” value in the test on Human keratinocytes (50 nM picropodophyllin just prior to scratch assay) is reported as “attenuated the increased keratinocyte migration”.

For the origin of these results see patent publication US11484708B2, “Methods and devices for surgical pre-treatment” (Vomaris Innovations, Inc., priority 2014, dated 2022).
